For 24 molecules, selectivity ratio, Cytotoxicity and MIC results are on record in US9845330B2, “6-nitro-2,3-dihydroimidazo[2,1-b]oxazoles and a process for the preparation thereof” (priority 2013, dated 2017).

≈ marks a conversion by molar mass, not a printed value. Read-outs that look alike come from different tables or passages of the source.

What all share (assay type): cell-based
A short description of series [1]: Cytotoxicity assay (MTT) in macrophage J774 cells. Conditions: mouse, J774 macrophage cells; also called safety index. The procedure: (§1) The study was carried out using macrophage J774 cells line (ATCC-USA). Cells were grown in Rosewell Park Memorial Institute Medium (RPMI) containing 10% fetal calf serum (FCS) and supplemented with 75 mg/liter penicillin, 100 mg/liter streptomycin, 110 mg/liter Sodium pyruvate, 2.38 gm/liter HEPES, 0.05 mM 2 β-mercaptoethanol, and 2 gm/liter NaHCO3, in a humidified atmosphere in 5% CO2 at 37° C., and were sub-cultured at 1:4 ratio once a week.
(§2) Cells were plated at a density of 3×10^4 cells/cm^2 and maintained in culture medium for 12 hours. Cells were seeded onto 96-well flat bottom plates and FCS was reduced to 5% for the experiment. Stock solutions of compounds IA1 to IIC10 were prepared fresh to avoid oxidation. Cells were incubated with the compounds (40 μg/ml) for 24 hrs.
(§3) After the completion of incubation, the medium was removed and cell viability was evaluated by assaying for the ability of functional mitochondria to catalyze the reduction of 3-(4,5-dimethylthiazol-2-yl)-2,5-diphenyltetrazolium bromide (MTT) to form formazan salt by mitochondrial dehydrogenases, and determined by Elisa reader at 450 nm (Multiskan Spectrum; Thermo Electron Corporation, USA). Percentage cytotoxicity was calculated with respect to the untreated cells.

The test system of series [2] is macrophage J774 cells line. Kind of series: Cytotoxicity assay (MTT) in macrophage J774 cells. Conditions: J774 cells, 24 hrs, MTT. The procedure: as §1, §2, §3
In series [3] the test system is M. tuberculosis H37Rv (ATCC 27294). In words: MIC by broth dilution method, M. tuberculosis H37Rv. The settings on record: Mycobacterium tuberculosis. A general note: Broth dilution looks for growth in wells or tubes with falling amounts of substance.
[4] abbreviates: 504 h, broth dilution, 3 weeks, read-out: MIC M. tb H37Rv.
The mark [5] stands for this setting: read-out: MIC value, text summary: sensitive H37Rv as well as MDR and XDR strains of M. tuberculosis.

In the case of `C[C@]1(COc2ccc(-c3cc(COc4ccc(F)cc4F)on3)cc2)Cn2cc([N+](=O)[O-])nc2O1` [IC22, (R)-2-{4-[5-(2,4-difluorophenoxymethyl)isoxazol-3-yl]phenoxymethyl}-2,3-dihydro-2-methyl-6-nitroimidazo[2,1-b]oxazole], in series [1], the selectivity ratio at 24 h, 40 μg/ml was over 10. The molecule further came in with a Cytotoxicity in series [2] of over 40 µg/mL. For the same molecule, the MIC in series [3] (setting [4]) is 0.12 µg/mL (≈ 0.248 µM); in series [3] (setting [5]) it was under 1 µg/mL.
Taken in the same sequence, the figures for `C[C@]1(COc2ccc(-n3cc(COc4ccc(F)cc4)nn3)cc2)Cn2cc([N+](=O)[O-])nc2O1` [IA26] were over 10, over 40 µg/mL, 0.5 µg/mL (≈ 1.07 µM) and under 1 µg/mL.
Regarding `C[C@]1(COc2ccccc2-n2cc(COc3ccc(OC(F)(F)F)cc3)nn2)Cn2cc([N+](=O)[O-])nc2O1` [IA39], the selectivity ratio at 24 h, 40 μg/ml in series [1] was over 10. For the same molecule, in series [2], the Cytotoxicity is over 40 µg/mL. In series [3] (setting [4]), the MIC worked out at 1 µg/mL (≈ 1.88 µM).
Turning to `CCC(C)c1ccc(OCc2cn(-c3ccc(OC[C@@]4(C)Cn5cc([N+](=O)[O-])nc5O4)cc3)nn2)cc1` (stereo partly shown) [IA32], the selectivity ratio at 24 h, 40 μg/ml in series [1] is over 10. Moreover, in series [2], the Cytotoxicity is over 40 µg/mL. The values for the MIC in series [3] (setting [4]) and in series [3] (setting [5]) were 0.12 µg/mL (≈ 0.238 µM) and under 1 µg/mL, respectively.
Take `C[C@]1(COc2ccc(-n3cc(-c4cccc(C(F)(F)F)c4)nn3)cc2)Cn2cc([N+](=O)[O-])nc2O1` [IA13, (R)-2-{4-[4-(3-trifluoromethylphenyl)-1H-1,2,3-triazol-1-yl]phenoxymethyl}-2,3-dihydro-2-methyl-6-nitroimidazo[2,1-b]oxazole]: the selectivity ratio at 24 h, 40 μg/ml in series [1] is over 10. For the same molecule, the Cytotoxicity in series [2] was over 40 µg/mL. Further, the MIC in series [3] (setting [4]) amounted to 2 µg/mL (≈ 4.11 µM).
Taken in the same sequence, the figures for `C[C@]1(COc2ccc(-c3cc(-c4ccccc4F)on3)cc2)Cn2cc([N+](=O)[O-])nc2O1` [IC4, (R)-2-{4-[5-(2-fluorophenyl)isoxazol-3-yl]phenoxymethyl}-2,3-dihydro-2-methyl-6-nitroimidazo[2,1-b]oxazole] were over 10, over 40 µg/mL and 2 µg/mL (≈ 4.58 µM).
Consider `C[C@]1(COc2ccc(S(=O)(=O)N3CCC(c4ccccc4)CC3)cc2)Cn2cc([N+](=O)[O-])nc2O1` [IIC8, (R)-2-{4-[(4-phenylpiperidin-1-yl)sulfonyl]phenoxymethyl}-2,3-dihydro-2-methyl-6-nitroimidazo[2,1-b]oxazole], for which the selectivity ratio at 24 h, 40 μg/ml in series [1] was over 10. In series [2], this molecule gave a Cytotoxicity of over 40 µg/mL. Further, the minimum inhibitory concentration (MIC) in series [3] (setting [4]) and in series [3] (setting [5]) was 0.5 µg/mL (≈ 1 µM) each time.
Consider `C[C@]1(COc2ccc(-c3cc(-c4ccc(F)cc4F)on3)cc2)Cn2cc([N+](=O)[O-])nc2O1` [IC3, (R)-2-{4-[5-(2,4-difluorophenyl)isoxazol-3-yl]phenoxymethyl}-2,3-dihydro-2-methyl-6-nitroimidazo[2,1-b]oxazole], for which the selectivity ratio at 24 h, 40 μg/ml in series [1] was over 10. Also, the Cytotoxicity in series [2] was over 40 µg/mL. In addition, the MIC in series [3] (setting [4]) is 0.25 µg/mL (≈ 0.55 µM); in series [3] (setting [5]), under 1 µg/mL.
Turning to `C[C@]1(COc2ccc(-n3cc(-c4ccccc4)nn3)cc2)Cn2cc([N+](=O)[O-])nc2O1` [IA1], in series [1], the selectivity ratio at 24 h, 40 μg/ml is over 10. In series [2], this molecule gave a Cytotoxicity of over 40 µg/mL. Moreover, the MIC in series [3] (setting [4]) was found to be 4 µg/mL (≈ 9.56 µM).
Regarding `CCCCCc1cc(-c2ccc(OC[C@@]3(C)Cn4cc([N+](=O)[O-])nc4O3)cc2)no1` [IC11, (R)-2-{4-[5-pentylisoxazol-3-yl]phenoxymethyl}-2,3-dihydro-2-methyl-6-nitroimidazo[2,1-b]oxazole], the selectivity ratio at 24 h, 40 μg/ml in series [1] is over 10. This molecule also displayed a Cytotoxicity in series [2] of over 40 µg/mL. The MIC in series [3] (setting [4]) came to 32 µg/mL (≈ 77.6 µM).
With `CC(C)c1ccc(OCc2cc(-c3ccc(OC[C@@]4(C)Cn5cc([N+](=O)[O-])nc5O4)cc3)no2)cc1` [IC18, (R)-2-{4-[5-(4-isopropylphenoxymethyl)isoxazol-3-yl]phenoxymethyl}-2,3-dihydro-2-methyl-6-nitroimidazo[2,1-b]oxazole], the selectivity ratio at 24 h, 40 μg/ml in series [1] was over 10. The molecule further came in with a Cytotoxicity in series [2] of over 40 µg/mL. Further, the figures for the MIC in series [3] (setting [4]) and in series [3] (setting [5]) were 0.25 µg/mL (≈ 0.51 µM) and under 1 µg/mL, respectively.
As for `COc1ccc(NC(=O)Nc2ccc(OC[C@@]3(C)Cn4cc([N+](=O)[O-])nc4O3)cc2)cc1` [IIA5, (R)-1-(4-methoxyphenyl)-3-{4-(2-methyl-6-nitro-2,3-dihydroimidazo[2,1-b]oxazol-2-yl)methoxyphenyl}urea], in series [1], the selectivity ratio at 24 h, 40 μg/ml is over 10. The same molecule displayed a Cytotoxicity in series [2] of over 40 µg/mL. For the same molecule, the MIC in series [3] (setting [4]) turned out to be 1 µg/mL (≈ 2.28 µM).
Taken in the same sequence, the figures for `CCCCCCCc1cc(-c2ccc(OC[C@@]3(C)Cn4cc([N+](=O)[O-])nc4O3)cc2)no1` [IC12, (R)-2-{4-[5-heptylisoxazol-3-yl]phenoxymethyl}-2,3-dihydro-2-methyl-6-nitroimidazo[2,1-b]oxazole] were over 10, over 40 µg/mL and 2 µg/mL (≈ 4.54 µM).
Turning to `C[C@]1(COc2ccc(S(=O)(=O)N3CCOCC3)cc2)Cn2cc([N+](=O)[O-])nc2O1` [IIC10, (R)-2-{4-(morpholinsulfonyl)phenoxymethyl}-2,3-dihydro-2-methyl-6-nitroimidazo[2,1-b]oxazole], the selectivity ratio at 24 h, 40 μg/ml in series [1] was over 10. For the same molecule, the Cytotoxicity in series [2] was over 40 µg/mL. Also, the MIC in series [3] (setting [4]) and in series [3] (setting [5]) was 0.5 µg/mL (≈ 1.18 µM) each time.
With `C[C@]1(COc2ccc(-n3cc(-c4cccc(OC(F)(F)F)c4)nn3)cc2)Cn2cc([N+](=O)[O-])nc2O1` [IA12, (R)-2-{4-[4-(3-trifluoromethoxyphenyl)-1H-1,2,3-triazol-1-yl]phenoxymethyl}-2,3-dihydro-2-methyl-6-nitroimidazo[2,1-b]oxazole], in series [1], the selectivity ratio at 24 h, 40 μg/ml was over 10. Moreover, the Cytotoxicity in series [2] is over 40 µg/mL. Moreover, the MIC in series [3] (setting [4]) was 0.5 µg/mL (≈ 0.995 µM); in series [3] (setting [5]), under 1 µg/mL.
Take `C[C@]1(COc2ccc(-n3cc(-c4ccccc4C(F)(F)F)nn3)cc2)Cn2cc([N+](=O)[O-])nc2O1` [IA6, (R)-2-{4-[4-(2-trifluoromethylphenyl)-1H-1,2,3-triazol-1-yl]phenoxymethyl}-2,3-dihydro-2-methyl-6-nitroimidazo[2,1-b]oxazole]: the selectivity ratio at 24 h, 40 μg/ml in series [1] is over 10. Further, the Cytotoxicity in series [2] is over 40 µg/mL. In series [3] (setting [4]), the MIC turned out to be 1 µg/mL (≈ 2.06 µM).
Take `CCc1ccc(OCc2cn(-c3ccc(OC[C@@]4(C)Cn5cc([N+](=O)[O-])nc5O4)cc3)nn2)cc1` [IA31]: in series [1], the selectivity ratio at 24 h, 40 μg/ml is over 10. The molecule also came in with a Cytotoxicity in series [2] of over 40 µg/mL. Besides, the MIC in series [3] (setting [4]) was 0.25 µg/mL (≈ 0.525 µM); in series [3] (setting [5]) it was under 1 µg/mL.
With `C[C@]1(COc2ccc(-c3cc(-c4ccc(C(F)(F)F)cc4)on3)cc2)Cn2cc([N+](=O)[O-])nc2O1` [IC5, (R)-2-{4-[5-(4-trifluoromethylphenyl)isoxazol-3-yl]phenoxymethyl}-2,3-dihydro-2-methyl-6-nitroimidazo[2,1-b]oxazole], in series [1], the selectivity ratio at 24 h, 40 μg/ml is over 10. Besides, in series [2], the Cytotoxicity was over 40 µg/mL. For the same molecule, the MIC in series [3] (setting [4]) was determined as 1 µg/mL (≈ 2.06 µM).
Taken in the same sequence, the figures for `C[C@]1(COc2ccc(NC(=O)Nc3ccc(F)cc3)cc2)Cn2cc([N+](=O)[O-])nc2O1` [IIA1, (R)-1-(4-fluorophenyl)-3-{4-(2-methyl-6-nitro-2,3-dihydroimidazo[2,1-b]oxazol-2-yl)methoxyphenyl}urea] were over 10, over 40 µg/mL and 2 µg/mL (≈ 4.68 µM).
In the case of `Cc1ccc(-c2cc(-c3ccc(OC[C@@]4(C)Cn5cc([N+](=O)[O-])nc5O4)cc3)no2)cc1` [IC6, (R)-2-{4-[5-(4-methylphenyl)isoxazol-3-yl]phenoxymethyl}-2,3-dihydro-2-methyl-6-nitroimidazo[2,1-b]oxazole], the selectivity ratio at 24 h, 40 μg/ml in series [1] was over 10. In series [2], this molecule gave a Cytotoxicity of over 40 µg/mL. Moreover, the MIC in series [3] (setting [4]) is 1 µg/mL (≈ 2.31 µM).
Regarding `C[C@]1(COc2ccc(-n3cc(COc4ccccc4F)nn3)cc2)Cn2cc([N+](=O)[O-])nc2O1` [IA28], in series [1], the selectivity ratio at 24 h, 40 μg/ml is over 10. This molecule also displayed a Cytotoxicity in series [2] of over 40 µg/mL. The MIC is 0.12 µg/mL (≈ 0.257 µM) in series [3] (setting [4]) and under 1 µg/mL in series [3] (setting [5]).
For the molecule `C[C@]1(COc2ccccc2-n2cc(COc3ccccc3F)nn2)Cn2cc([N+](=O)[O-])nc2O1` [IA42], the selectivity ratio at 24 h, 40 μg/ml in series [1] was over 10. For the same molecule, in series [2], the Cytotoxicity was over 40 µg/mL. Moreover, the MIC in series [3] (setting [4]) was 2 µg/mL (≈ 4.29 µM).
`C[C@]1(COc2ccc(S(=O)(=O)N3CCCCC3)cc2)Cn2cc([N+](=O)[O-])nc2O1` [IIC7, (R)-2-{4-(piperidin-1-ylsulfonyl)phenoxymethyl}-2,3-dihydro-2-methyl-6-nitroimidazo[2,1-b]oxazole]: the selectivity ratio at 24 h, 40 μg/ml in series [1] is over 10. Besides, the Cytotoxicity in series [2] was over 40 µg/mL. In addition, the MIC in series [3] (setting [4]) came to 1 µg/mL (≈ 2.37 µM).
Taken in the same sequence, the figures for `C[C@]1(COc2ccc(S(=O)(=O)N3CCCC3)cc2)Cn2cc([N+](=O)[O-])nc2O1` [IIC9, (R)-2-{4-(pyrrolidin-1-ylsulfonyl)phenoxymethyl}-2,3-dihydro-2-methyl-6-nitroimidazo[2,1-b]oxazole] were over 10, over 40 µg/mL and 1 µg/mL (≈ 2.45 µM).

Broadly, the MIC is the smallest concentration in the dilution series that meets the test's criterion for growth inhibition.
